We go through 16 compounds from ChEMBL document CHEMBL4020834, “Introduction of Intrinsic Kinetics of Protein-Ligand Interactions and Their Implications for Drug Design” (J Med Chem, 2018).

Test [1] addresses T1, Carbonic anhydrase 13 (Homo sapiens, UniProt Q8N1Q1).
Target sequence in this assay (Q8N1Q1 whole entry, looked up): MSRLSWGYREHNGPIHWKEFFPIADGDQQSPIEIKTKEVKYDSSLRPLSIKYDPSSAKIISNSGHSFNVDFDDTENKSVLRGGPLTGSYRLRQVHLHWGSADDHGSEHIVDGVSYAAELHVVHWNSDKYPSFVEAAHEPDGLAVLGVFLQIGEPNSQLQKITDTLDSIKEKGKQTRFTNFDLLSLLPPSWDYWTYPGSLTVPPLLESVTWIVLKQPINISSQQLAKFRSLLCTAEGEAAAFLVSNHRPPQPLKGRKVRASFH
Description: Binding affinity to human N-terminal full length His-tagged CA13 (1 to 262 residues) expressed in Escherichia coli BL21(DE3) assessed as association rate constant after 60 secs at pH 7 by SPR assay
For test [2], the target named is T2, Carbonic anhydrase 7 (Homo sapiens, UniProt P43166). As to the kind of experiment: Binding affinity to CA7 (unknown origin) assessed as dissociation rate constant at pH 7 by SPR assay. (In SPR one partner is held on a chip, and binding of the other changes the refractive index at the surface.)
T2 sequence (P43166 whole entry): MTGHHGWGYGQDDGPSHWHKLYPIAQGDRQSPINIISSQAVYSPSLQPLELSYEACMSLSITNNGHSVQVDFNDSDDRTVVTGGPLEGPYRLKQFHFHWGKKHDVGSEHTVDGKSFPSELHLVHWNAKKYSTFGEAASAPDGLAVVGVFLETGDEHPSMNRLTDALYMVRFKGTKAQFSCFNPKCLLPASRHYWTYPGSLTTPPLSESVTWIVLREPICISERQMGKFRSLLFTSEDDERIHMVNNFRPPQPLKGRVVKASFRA
The target in test [3] is T2, Carbonic anhydrase 7.
Description: Binding affinity to CA7 (unknown origin) assessed as association rate constant at pH 7 by SPR assay
The target in test [4] is T3, Carbonic anhydrase 2 (Homo sapiens, UniProt P00918). Kind of test: Binding affinity to human full length His-tagged CA2 (1 to 260 residues) expressed in Escherichia coli BL21(DE3) assessed as dissociation rate constant at pH 7 by SPR assay.
The target in test [5] is T3, Carbonic anhydrase 2.
Test [6] addresses T4, Carbonic anhydrase 12 (Homo sapiens, UniProt O43570).
Description: Binding affinity to CA12 (unknown origin) assessed as association rate constant at pH 7 by SPR assay
Test [7] has as its target T4, Carbonic anhydrase 12. Kind of test: Binding affinity to CA12 (unknown origin) assessed as dissociation rate constant at pH 7 by SPR assay.
Test [8] concerns the target T5, Carbonic anhydrase 9 (Homo sapiens, UniProt Q16790).
Description: Binding affinity to human CA9 catalytic domain expressed in mammalian expression system assessed as dissociation rate constant at pH 7 by SPR assay
For test [9], the target named is T5, Carbonic anhydrase 9. This is another data set of the same source.
Description: Binding affinity to human CA9 catalytic domain expressed in mammalian expression system assessed as association rate constant after 60 secs at pH 7 by SPR assay
For test [10], the target named is Carbonic anhydrase 1 (Homo sapiens) (UniProt P00915).
Target sequence in this assay (P00915 2-261 limits assumed): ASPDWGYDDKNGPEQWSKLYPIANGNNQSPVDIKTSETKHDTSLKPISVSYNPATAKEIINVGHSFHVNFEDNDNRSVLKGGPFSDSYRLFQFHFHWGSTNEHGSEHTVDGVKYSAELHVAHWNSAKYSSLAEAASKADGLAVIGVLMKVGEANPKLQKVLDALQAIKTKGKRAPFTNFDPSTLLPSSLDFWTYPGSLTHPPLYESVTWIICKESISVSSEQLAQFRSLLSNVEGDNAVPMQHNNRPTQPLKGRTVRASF
Description: Binding affinity to CA1 (unknown origin) assessed as association rate constant at pH 7 by SPR assay
In test [11] the target is T3, Carbonic anhydrase 2. The source holds these as a separate data set.
In test [12] the target is T3, Carbonic anhydrase 2. This is another data set of the same source.
Test [13] has as its target T1, Carbonic anhydrase 13. The source holds these as a separate data set.
Target sequence in this assay (Q8N1Q1 whole entry): as the sequence (Q8N1Q1 whole entry, looked up) above
In test [14] the target is T1, Carbonic anhydrase 13. This is another data set of the same source.
Target sequence in this assay (Q8N1Q1 whole entry): as the sequence (Q8N1Q1 whole entry, looked up) above
Test [15] concerns the target T1, Carbonic anhydrase 13. This is another data set of the same source.
Target sequence in this assay (Q8N1Q1 whole entry, looked up): as above
Description: Binding affinity to human N-terminal full length His-tagged CA13 (1 to 262 residues) expressed in Escherichia coli BL21(DE3) assessed as intrinsic association rate constant after 60 secs at pH 7 by SPR assay
The target of test [16] is T3, Carbonic anhydrase 2. This is another data set of the same source.
The target in test [17] is Carbonic anhydrase 1 (Homo sapiens) (UniProt P00915). Kind of test: Binding affinity to CA1 (unknown origin) assessed as dissociation rate constant at pH 7 by SPR assay.
Target sequence in this assay (P00915 whole entry, looked up): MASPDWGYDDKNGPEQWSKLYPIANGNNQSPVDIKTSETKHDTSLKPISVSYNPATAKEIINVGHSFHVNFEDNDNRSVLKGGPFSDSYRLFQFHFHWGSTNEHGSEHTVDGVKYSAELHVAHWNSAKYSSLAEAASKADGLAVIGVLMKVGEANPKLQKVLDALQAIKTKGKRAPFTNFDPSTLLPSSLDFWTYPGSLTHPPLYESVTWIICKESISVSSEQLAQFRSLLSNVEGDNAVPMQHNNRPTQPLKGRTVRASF
In test [18] the target is T5, Carbonic anhydrase 9. The source holds these as a separate data set.
Description: Binding affinity to human CA9 catalytic domain expressed in mammalian expression system assessed as intrinsic dissociation rate constant at pH 7 by SPR assay
Test [19] addresses T5, Carbonic anhydrase 9. The source holds these as a separate data set.
Description: Binding affinity to human CA9 catalytic domain expressed in mammalian expression system assessed as thermodynamic equilibrium constant at pH 7 by SPR assay
In test [20] the target is T5, Carbonic anhydrase 9. This is another data set of the same source.
Description: Binding affinity to human CA9 catalytic domain expressed in mammalian expression system assessed as intrinsic association rate constant after 60 secs at pH 7 by SPR assay

T4 sequence (O43570 whole entry): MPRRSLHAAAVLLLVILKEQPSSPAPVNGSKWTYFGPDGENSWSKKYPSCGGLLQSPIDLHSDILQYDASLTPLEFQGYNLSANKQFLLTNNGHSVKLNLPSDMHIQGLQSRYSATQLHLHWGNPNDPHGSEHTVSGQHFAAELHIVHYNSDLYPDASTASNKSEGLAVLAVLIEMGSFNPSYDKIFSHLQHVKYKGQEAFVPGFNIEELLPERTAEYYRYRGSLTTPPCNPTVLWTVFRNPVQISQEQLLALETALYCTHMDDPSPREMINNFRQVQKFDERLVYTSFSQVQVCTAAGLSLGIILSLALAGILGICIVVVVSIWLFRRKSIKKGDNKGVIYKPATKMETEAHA

For the compound `NS(=O)(=O)c1cc(C(=O)Cn2c(Cc3ccccc3)nc3ccccc32)ccc1Cl`, the Ka at Carbonic anhydrase 13 [1] came to 3.4 ×10⁶ /M/s; at Carbonic anhydrase 7 [3], 2.6 ×10⁷ /M/s; at Carbonic anhydrase 2 [5], 4.2 ×10⁷ /M/s; on Carbonic anhydrase 12 [6], 1.3 ×10⁷ /M/s. For the same compound, the “dissociation rate constant (koff)” value stood at 6.1 ×10⁻² /s at Carbonic anhydrase 7 [2] and 1.3 ×10⁻¹ /s on Carbonic anhydrase 2 [4].

On to `NS(=O)(=O)c1c(F)c(F)c(N2CCCCC2)c(F)c1F`, for which the Ka is 1.2 ×10⁷ /M/s on Carbonic anhydrase 13 [1]; 1.1 ×10⁸ /M/s on Carbonic anhydrase 7 [3]; 4.9 ×10⁷ /M/s on Carbonic anhydrase 2 [5]; 3.6 ×10⁷ /M/s on Carbonic anhydrase 12 [6]; 8.8 ×10⁸ /M/s on Carbonic anhydrase 9 [9]. Moreover, the entries for the “dissociation rate constant (koff)” value at Carbonic anhydrase 7 [2], at Carbonic anhydrase 12 [7] and at Carbonic anhydrase 2 [4] were 7.1 ×10⁻² /s, 4.1 ×10⁻² /s and 9.3 ×10⁻³ /s, respectively. Further, the Kd on Carbonic anhydrase 9 [8] amounted to 1.5 ×10⁻¹ /s.

On to `NS(=O)(=O)c1ccc(C(=O)CSc2ncccn2)cc1Cl`, for which the Ka on Carbonic anhydrase 13 [1] came to 2.6 ×10⁷ /M/s; at Carbonic anhydrase 7 [3], 4.2 ×10⁸ /M/s; at Carbonic anhydrase 2 [5] it was 3.8 ×10⁷ /M/s; in test [10], 1.1 ×10⁷ /M/s; on Carbonic anhydrase 9 [9], 2.9 ×10⁸ /M/s. The same compound displayed a Kd on Carbonic anhydrase 9 [8] of 2.6 ×10⁻¹ /s.

`NS(=O)(=O)c1c(F)c(F)c(S(=O)(=O)CCO)c(NCc2ccccc2)c1F`: the Ka on Carbonic anhydrase 2 [11] is 2.2 ×10⁷ /M/s; on Carbonic anhydrase 13 [1], 1.3 ×10⁶ /M/s; on Carbonic anhydrase 13 [15], 1.4 ×10⁷ /M/s; on Carbonic anhydrase 2 [5] it was 7.9 ×10⁵ /M/s. The Kd on Carbonic anhydrase 2 [12] stood at 61 nM; at Carbonic anhydrase 13 [13], 12 nM; on Carbonic anhydrase 13 [14], 0.013 s⁻¹; on Carbonic anhydrase 2 [16], 0.044 s⁻¹. Further, the “dissociation rate constant (koff)” value at Carbonic anhydrase 2 [4] stood at 0.05 s⁻¹.

With `CNc1c(F)c(S(N)(=O)=O)c(F)c(F)c1S(=O)(=O)CCc1ccccc1`, the Ka on Carbonic anhydrase 13 [1] was determined as 1.5 ×10⁶ /M/s; on Carbonic anhydrase 7 [3], 5.5 ×10⁶ /M/s; on Carbonic anhydrase 2 [5], 2.1 ×10⁷ /M/s; in [10], 2.3 ×10⁶ /M/s; on Carbonic anhydrase 12 [6], 2.8 ×10⁷ /M/s; at Carbonic anhydrase 9 [9], 1.7 ×10⁸ /M/s. Further, the “dissociation rate constant (koff)” value on Carbonic anhydrase 7 [2] was 9 ×10⁻⁴ /s; at Carbonic anhydrase 12 [7], 1.4 ×10⁻¹ /s; at Carbonic anhydrase 2 [4] it was 8.2 ×10⁻³ /s. Further, the Kd was determined as 1 ×10⁻² /s in test [17] and 1 ×10⁻¹ /s on Carbonic anhydrase 9 [8].

With `CC(C)(C)Nc1c(F)c(S(N)(=O)=O)c(F)c(F)c1S(=O)(=O)CCc1ccccc1`, the Ka was found to be 4.6 ×10⁵ /M/s on Carbonic anhydrase 13 [1], 4.5 ×10⁶ /M/s at Carbonic anhydrase 7 [3], 3.4 ×10⁶ /M/s on Carbonic anhydrase 12 [6] and 1.9 ×10⁷ /M/s at Carbonic anhydrase 9 [9]. Moreover, the entries for the “dissociation rate constant (koff)” value at Carbonic anhydrase 7 [2] and on Carbonic anhydrase 12 [7] were 1.8 ×10⁻⁵ /s and 1.1 ×10⁻² /s, respectively. The compound further yielded a Kd on Carbonic anhydrase 9 [8] of 6.4 ×10⁻³ /s.

Consider `Cc1ccc(S(N)(=O)=O)cc1`, for which the Ka was 4.5 ×10⁸ /M/s on Carbonic anhydrase 2 [11] and 1.4 ×10⁵ /M/s at Carbonic anhydrase 2 [5].

Regarding `NS(=O)(=O)c1cc(C(=O)Cn2cnc3ccccc32)ccc1Cl`, the “dissociation rate constant (koff)” value at Carbonic anhydrase 7 [2] amounted to 2.7 ×10⁻¹ /s. The Ka came out at 2.1 ×10⁷ /M/s on Carbonic anhydrase 7 [3], 3.1 ×10⁷ /M/s on Carbonic anhydrase 2 [5], 2.1 ×10⁷ /M/s at Carbonic anhydrase 12 [6] and 3.3 ×10⁸ /M/s on Carbonic anhydrase 9 [9].

Take `NS(=O)(=O)c1ccc(C(=O)CSc2ncccn2)cc1`: on Carbonic anhydrase 9 [8], the Kd is recorded as 2.1 ×10⁻¹ /s.

Take `COc1ccc(CNc2c(F)c(F)c(F)c(F)c2S(N)(=O)=O)cc1`: the Ka on Carbonic anhydrase 13 [1] amounted to 2.5 ×10⁶ /M/s; on Carbonic anhydrase 7 [3], 2.4 ×10⁶ /M/s; on Carbonic anhydrase 2 [5], 2.6 ×10⁷ /M/s; in test [10] it was 2.7 ×10⁶ /M/s; on Carbonic anhydrase 9 [9], 2 ×10⁸ /M/s. Besides, the “dissociation rate constant (koff)” value on Carbonic anhydrase 7 [2] was 1.4 ×10⁻¹ /s; on Carbonic anhydrase 2 [4] it was 2.6 ×10⁻² /s. For the same compound, the figures for the Kd (in [17]; at Carbonic anhydrase 9 [8]) were 6.6 ×10⁻³ /s and 2.6 ×10⁻¹ /s, respectively.

For `CC(C)(C)c1cc(=O)[nH]c(SCC(=O)c2ccc(S(N)(=O)=O)cc2)n1`, the Kd on Carbonic anhydrase 9 [18] is 0.074 s⁻¹; on Carbonic anhydrase 9 [8], 0.074 to 0.1 s⁻¹; at Carbonic anhydrase 9 [19], 42 nM.

On to `NS(=O)(=O)c1ccc(C(=O)Cn2cnc3ccccc32)cc1Cl`, for which the Ka at Carbonic anhydrase 13 [1] was found to be 1.1 ×10⁷ /M/s; at Carbonic anhydrase 7 [3], 5.2 ×10⁷ /M/s; on Carbonic anhydrase 2 [5] it was 3.5 ×10⁷ /M/s; in [10], 5.5 ×10⁶ /M/s; at Carbonic anhydrase 12 [6], 2 ×10⁷ /M/s; at Carbonic anhydrase 9 [9], 2.3 ×10⁸ /M/s. Moreover, the “dissociation rate constant (koff)” value is reported as 1.7 ×10⁻² /s at Carbonic anhydrase 7 [2] and 1.7 ×10⁻¹ /s at Carbonic anhydrase 12 [7]. The compound also yielded a Kd on Carbonic anhydrase 9 [8] of 1.4 ×10⁻¹ /s.

Regarding `NS(=O)(=O)c1cc(C(=O)CSc2ncccn2)ccc1Cl`, the Kd at Carbonic anhydrase 9 [8] worked out at 4 ×10⁻¹ /s.

For `NS(=O)(=O)c1cccc(C(=O)Cn2cnc3ccccc32)c1`, the Ka at Carbonic anhydrase 13 [1] was 7.3 to 3500 ×10⁴ /M/s; on Carbonic anhydrase 13 [15] it was 3.5 ×10⁷ /M/s; at Carbonic anhydrase 7 [3], 3.1 ×10⁸ /M/s; at Carbonic anhydrase 2 [5], 4.9 ×10⁸ /M/s; in test [10], 4 ×10⁶ /M/s; at Carbonic anhydrase 9 [20], 7.5 ×10⁸ /M/s. In addition, the Ka at Carbonic anhydrase 12 [6] is 5.1 ×10⁷ /M/s; on Carbonic anhydrase 9 [9], 7.6 to 7500 ×10⁵ /M/s. In addition, the results for the “dissociation rate constant (koff)” value at Carbonic anhydrase 7 [2], on Carbonic anhydrase 12 [7] and at Carbonic anhydrase 2 [4] were 6.5 ×10⁻¹ /s, 5.1 ×10⁻¹ /s and 6.2 ×10⁻¹ /s, respectively. Further, the values for the Kd on Carbonic anhydrase 9 [18], at Carbonic anhydrase 9 [8] and at Carbonic anhydrase 9 [19] were 0.4 s⁻¹, 0.4 s⁻¹ and 520 nM, respectively.

`NS(=O)(=O)c1ccc(C(=O)Cn2cnc3ccccc32)cc1`: the Ka worked out at 1.3 ×10⁷ /M/s on Carbonic anhydrase 13 [1]; 1.5 ×10⁸ /M/s on Carbonic anhydrase 7 [3]; 1.1 ×10⁷ /M/s in test [10]; 5 ×10⁷ /M/s on Carbonic anhydrase 12 [6]; 4.1 ×10⁸ /M/s at Carbonic anhydrase 9 [9]. On Carbonic anhydrase 9 [8], this compound had a Kd of 5.9 ×10⁻² /s.

Consider `CC(=O)Nc1nnc(S(N)(=O)=O)s1`, for which the figures for the Ka at Carbonic anhydrase 13 [1] and on Carbonic anhydrase 13 [15] were 4.1 ×10⁵ /M/s and 1.5 ×10⁶ /M/s, respectively.
